We go through eleven molecules from ChEMBL document CHEMBL1201862, “PubChem BioAssay data set” (2004).

Molecules are shown by their SMILES.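 Following 48 hours of exposure in 96-well plates, responses at five concentrations were used to interpolate endpoints linearly. Abbreviation: GI50, concentration required for 50% inhibition of growth.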 The source made the active and inactive calls. Rule as the data show it: active = GI50 up to about 1.1 µM and inactive = higher. A value given as a limit tells only on which side of the number the result lay.

Some test systems named below: EKVX; HCC 2998; HCT-116; HCT-15; HOP-62; HOP-92; IGROV-1; K562; KM12; NCI-H522; RPMI-8226; RXF 393; SK-MEL-5; SW-620; TK-10; UACC-257; UO-31; CCRF-CEM; OVCAR-3.
What all share (assay): NCI-60 cell line screen, 48 h

Take `COc1ccc2c(c1)N=C1CSC(c3cc([N+](=O)[O-])ccc3Cl)N1C2` (stereo not given): the GI50 in the test on EKVX is 18.3 µM (inactive); in the test with HCC 2998 it was 16.6 µM (inactive); in the test with HCT-116, 20.1 µM (inactive); in the test with HCT-15 it was 28.6 µM; in the test on HOP-62, 32.1 µM (inactive); with HOP-92, 19.6 µM (inactive). Also, the GI50 in the test on IGROV-1 was 34.5 µM (inactive); in the test with K562 it was 26 µM (inactive); with KM12, 19 µM (inactive); with NCI-H522, 21.5 µM (inactive); in the test on RPMI-8226, 17.4 µM (inactive); with RXF 393 it was 19.8 µM (inactive). Moreover, the GI50 was 40.6 µM (inactive) in the test on SK-MEL-5; 29.3 µM (inactive) in the test with SW-620; 21.4 µM (inactive) with TK-10; 15.8 µM (inactive) with UACC-257; 19.6 µM (inactive) in the test with UO-31.

For the molecule `Cc1nnc2c3nnc(C)n3c3ccccc3n12`, the GI50 is > 100 µM (inactive) with CCRF-CEM; > 100 µM (inactive) in the test on EKVX; > 100 µM (inactive) with HCC 2998; > 100 µM (inactive) in the test with HCT-116; greater than 100 µM in the test on HCT-15; > 100 µM (inactive) with HOP-62. Also, the GI50 in the test with HOP-92, in the test on IGROV-1, in the test with K562, in the test on KM12, with NCI-H522 and in the test on OVCAR-3 was > 100 µM (inactive) each time. For the same molecule, the GI50 in the test on RPMI-8226, in the test on RXF 393, in the test with SK-MEL-5, in the test on SW-620, with TK-10 and in the test with UACC-257 was > 100 µM (inactive) in each case. In addition, the GI50 in the test on UO-31 was > 100 µM (inactive).

Turning to `N#CCCN(c1ccc(/C=N/c2ccc(C(=O)O)cc2)cc1)S(=O)(=O)c1ccccc1`, the GI50 in the test on CCRF-CEM is > 100 µM (inactive); in the test on EKVX, > 100 µM (inactive); in the test on HCC 2998, > 100 µM (inactive); with HCT-116 it was > 100 µM (inactive); in the test on HCT-15 it was greater than 100 µM; in the test with HOP-62, > 100 µM (inactive). For the same molecule, the GI50 in the test with HOP-92, in the test with IGROV-1, in the test with K562, in the test on KM12, with NCI-H522 and in the test on OVCAR-3 was > 100 µM (inactive) in each case. For the same molecule, the GI50 with RPMI-8226, with RXF 393, with SK-MEL-5, with SW-620, in the test with TK-10 and in the test on UACC-257 was > 100 µM (inactive) each time. Also, in the test on UO-31, the GI50 is > 100 µM (inactive).

Consider `CCCP1(=O)C=C(C)C(=C(Cl)Cl)C(C)=C1` (stereo not given), for which the GI50 was 39.5 µM (inactive) in the test with CCRF-CEM; 83 µM (inactive) in the test with EKVX; 32.3 µM (inactive) in the test on HCC 2998; 41.2 µM (inactive) in the test with HCT-116; 30.7 µM in the test with HCT-15; 49.3 µM (inactive) in the test on HOP-62. Further, the GI50 in the test with HOP-92 was 24.2 µM (inactive); in the test with IGROV-1, 70 µM (inactive); in the test on K562, 30.8 µM (inactive); with KM12 it was 24.2 µM (inactive); in the test on NCI-H522 it was 18.3 µM (inactive); in the test on OVCAR-3, 84.9 µM (inactive). The GI50 in the test on RXF 393 was 25.9 µM (inactive); with SK-MEL-5, 24.1 µM (inactive); with SW-620 it was 32.1 µM (inactive); with TK-10 it was > 100 µM (inactive); with UACC-257, 64.4 µM (inactive); with UO-31, 46.7 µM (inactive).

In the case of `Cc1ccc(NC(=O)CC/C(CC(=O)c2ccc(F)cc2)=N\NC(=O)C(=O)NN)cc1C`, the GI50 in the test on CCRF-CEM is > 100 µM (inactive); in the test on EKVX, > 100 µM (inactive); in the test with HCC 2998 it was > 100 µM (inactive); with HCT-116 it was > 100 µM (inactive); in the test with HCT-15 it was greater than 100 µM; in the test with HOP-62 it was > 100 µM (inactive). For the same molecule, the GI50 with HOP-92, in the test with IGROV-1, in the test on K562, in the test on KM12, in the test on NCI-H522 and in the test on OVCAR-3 was > 100 µM (inactive) in each case. The GI50 in the test on RXF 393, in the test with SK-MEL-5, with SW-620, in the test on TK-10, in the test on UACC-257 and with UO-31 was > 100 µM (inactive) in each case.

For `CC(C)C(=O)NC(=S)Nc1ccc([N+](=O)[O-])cc1C#N`, the GI50 with CCRF-CEM was > 100 µM (inactive); in the test with EKVX, 63.8 µM (inactive); in the test on HCC 2998, > 100 µM (inactive); in the test with HCT-116 it was > 100 µM (inactive); in the test on HCT-15, greater than 100 µM; in the test with HOP-62, > 100 µM (inactive). Moreover, the GI50 in the test on HOP-92, with IGROV-1, with K562, with KM12, in the test with NCI-H522 and in the test on OVCAR-3 was > 100 µM (inactive) throughout. Moreover, the GI50 in the test with RPMI-8226, in the test on RXF 393, in the test with SK-MEL-5, in the test with SW-620, in the test on TK-10 and in the test with UACC-257 was > 100 µM (inactive) throughout. In the test with UO-31, the GI50 was > 100 µM (inactive).

For `CCCCCCCCCCCCCC(=O)OCC(C[As](=O)(O)O)OC(=O)CCCCCCCCCCCCC` (stereo not given), the GI50 is > 100 µM (inactive) in the test on CCRF-CEM; > 100 µM (inactive) in the test with EKVX; > 100 µM (inactive) in the test on HCC 2998; > 100 µM (inactive) in the test on HCT-116; 69.3 µM in the test on HCT-15; > 100 µM (inactive) with HOP-62. Moreover, the GI50 was 86.5 µM (inactive) in the test on HOP-92; > 100 µM (inactive) with IGROV-1; > 100 µM (inactive) in the test on K562; > 100 µM (inactive) in the test on KM12; > 100 µM (inactive) in the test with NCI-H522; > 100 µM (inactive) in the test on OVCAR-3. For the same molecule, the GI50 was > 100 µM (inactive) in the test on RPMI-8226; 35.3 µM (inactive) in the test with RXF 393; > 100 µM (inactive) in the test on SK-MEL-5; 18.6 µM (inactive) with SW-620; > 100 µM (inactive) in the test with TK-10; > 100 µM (inactive) in the test with UACC-257. Also, the GI50 in the test on UO-31 is > 100 µM (inactive).

As to `C#C[C@@H](CCCC)OC(=O)N[C@H](C)c1ccccc1`, the GI50 in the test on CCRF-CEM is 25.7 µM (inactive); in the test with EKVX it was 60.7 µM (inactive); in the test with HCC 2998, 1.96 µM (inactive); with HCT-116 it was 34.3 µM (inactive); in the test on HOP-62 it was > 100 µM (inactive); in the test on HOP-92, 1.83 µM (inactive). The GI50 in the test on IGROV-1 was 23 µM (inactive); in the test with K562, 31.9 µM (inactive); in the test with KM12, 39.7 µM (inactive); with NCI-H522 it was 1.74 µM (inactive); with OVCAR-3 it was 35.4 µM (inactive); with RPMI-8226 it was 23 µM (inactive). The GI50 in the test on RXF 393 is 2.36 µM (inactive); in the test on SK-MEL-5, 20.6 µM (inactive); in the test with SW-620, 51.9 µM (inactive); in the test on TK-10, 29.2 µM (inactive); in the test on UACC-257, 44.8 µM (inactive); in the test on UO-31, 19 µM (inactive).

As for `Clc1ccc(OCc2nnc3n2N=C(c2ccccc2)CS3)c(Cl)c1`, the GI50 in the test with CCRF-CEM is 4.03 µM (inactive); in the test with HCC 2998, > 100 µM (inactive); with HCT-116 it was 2.67 µM (inactive); in the test on HCT-15, greater than 100 µM; in the test on HOP-62, > 10 µM (inactive); with HOP-92, 4.21 µM (inactive). Moreover, the GI50 in the test with IGROV-1 was 6.4 µM (inactive); with K562 it was 4.25 µM (inactive); in the test on KM12, > 100 µM (inactive); in the test with NCI-H522 it was 3.81 µM (inactive); in the test with OVCAR-3, > 10 µM (inactive); with RXF 393 it was 26.4 µM (inactive). Further, the GI50 was 8.28 µM (inactive) in the test with SK-MEL-5; > 100 µM (inactive) in the test on SW-620; 7.98 µM (inactive) in the test with TK-10; 56.2 µM (inactive) in the test on UACC-257; 2.14 µM (inactive) in the test with UO-31.

In the case of `CC/C=C\C/C=C\C1CC(=O)NCCCNCCCCN1` (stereo not given), the GI50 in the test on EKVX, in the test on HCC 2998, with HCT-116, in the test with HOP-62, in the test with HOP-92 and in the test on KM12 was > 100 µM (inactive) throughout. For the same molecule, the GI50 with NCI-H522 is 55.3 µM (inactive); with RXF 393, 4.83 µM (inactive); with SK-MEL-5, > 100 µM (inactive); with SW-620, > 100 µM (inactive); in the test with TK-10 it was > 100 µM (inactive); with UACC-257, > 100 µM (inactive). Besides, the GI50 in the test on UO-31 is > 100 µM (inactive).

On to `O=C1/C(=C/c2ccc(Cl)cc2)COc2ccc(Br)cc21`, for which the GI50 in the test with CCRF-CEM was 61.1 µM (inactive); in the test with EKVX, > 100 µM (inactive); with HCC 2998, > 100 µM (inactive); in the test with HCT-116, > 100 µM (inactive); in the test on HOP-62 it was > 100 µM (inactive); in the test with HOP-92, > 100 µM (inactive). For the same molecule, the GI50 in the test with IGROV-1 is > 100 µM (inactive); in the test with K562, > 100 µM (inactive); with KM12 it was > 100 µM (inactive); in the test on NCI-H522, 69.7 µM (inactive); in the test with OVCAR-3, > 100 µM (inactive); with RPMI-8226, 6.22 µM (inactive). Besides, the GI50 in the test with RXF 393 was 50.5 µM (inactive); in the test on SK-MEL-5, > 100 µM (inactive); in the test with SW-620 it was > 100 µM (inactive); in the test with TK-10 it was > 100 µM (inactive); with UACC-257, > 100 µM (inactive); in the test on UO-31 it was 80.4 µM (inactive).
